Assay results: patent US10662229B2, “Spider venom peptides and methods of use for modulating sodium channels” (priority 2016, dated 2020)
pIC50: −log10 of the molar value. Where a SMILES comes first, the peptide text is derived from it. Bridges are numbered along the chain shown (N, C = ends).

Columns and labels:
[1] = tested on: motor performance of mice; test: Motor assessment, Parallel Rod Floor Test; type: in vivo; settings: i.p.; Pnc1a 3 mg/kg, PF-04856254 30 mg/kg, CNV1014802 30 mg/kg, GpTx-1 0.1 mg/kg, gabapentin 100 mg/kg
Experimental: (§1) For behavioural assessment adult male C57BL/6J mice aged 6-8 weeks were used. Animals were housed in groups of 3 or 4 per cage, under 12 h light-dark cycles and had standard rodent chow and water ad libitum.
Motor performance was assessed using the Parallel Rod Floor Test and analyzed using ANY-Maze software (Stoelting Co., version 4.70, Wood Dale, Ill., USA). […] Mice were then placed in the Parallel Rod Floor Test apparatus, and the distance travelled (m) and number of foot slips were recorded over 1 min using the ANY-Maze software. The ataxia index was calculated by dividing the number of foot slips by the distance travelled (m).

[2] = tested on: carrageenan-induced mechanical and thermal allodynia in mice; test: Carrageenan model; type: in vivo; settings: naloxone methiodide 100 mg/kg i.p.
Experimental: as §1
λ-Carrageenan (Sigma-Aldrich Co.) was dissolved in phosphate buffered saline to a 1% w/v solution (prepared 24 h prior) and administered by intraplantar injection to the left hind paw of mice in a volume of 40 μL under light isoflurane (3%) anaesthesia. Behavioural assessment (mechanical and thermal thresholds) was performed 3 hours after injection of carrageenan.
Mechanical allodynia was assessed using an electronic von Frey apparatus (MouseMet Electronic von Frey, TopCat Metrology Ltd, United Kingdom). […] The force that elicited paw withdrawal was calculated using the MouseMet Software. The paw withdrawal force (PWF) was determined from the average of three tests, separated by at least 2 min.
Mice were habituated in individual mouse runs for at least 5 min prior to testing. […] Removal of the paw and/or the probe by the investigator terminates heating, and triggers display of the withdrawal temperature on the readout, without the need for the investigator to manually stop the heating or record the temperature, until the reset button is pressed. The temperature that elicited a paw withdrawal, known as the paw withdrawal temperature (PWT), was determined by a single test.

[3] = tested on: OD1-induced spontaneous pain behaviours in mice; test: OD1 model of spontaneous pain behaviours; type: in vivo; settings: intraplantar 1 μM, co-injected with OD1
Experimental: as §1
OD1 was diluted in phosphate-buffered saline/0.1% BSA (300 nM) and administered by shallow subcutaneous (intraplantar) injection to the left hind paw of mice in a volume of 40 μL under light isoflurane (3%) anesthesia. Mice were then placed individually into polyvinyl boxes (10×10×10 cm), and spontaneous pain behavior (licks and flinches) was counted by an investigator unaware of the treatments received from video recordings for 10 min post-injection.

hNav1.2 = target: T1, hNav1.2 (Homo sapiens, UniProt Q99250); test: FLIPR membrane potential assay, hNav1.2; type: cell-based
T1 construct: host or cells: HEK293
Method in brief: (§2)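 Readout is a FLIPR^TETRA membrane potential signal sampled every second for 300 s after agonists are added. HEK293 cells stably carrying the human channel are loaded with red membrane potential dye at 37° C for 30 min.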

hNav1.8 = target: T2, hNav1.8 (Homo sapiens, UniProt Q9Y5Y9); test: FLIPR membrane potential assay, hNav1.8; type: cell-based
T2 construct: host or cells: HEK293
Method in brief: as §2

hNav1.7 [4] = target: T3, hNav1.7 (Homo sapiens, UniProt Q15858); test: FLIPR membrane potential assay, hNav1.7; type: cell-based
T3 construct: host or cells: HEK293
Method in brief: as §2

hNav1.3 = target: T4, hNav1.3 (Homo sapiens, UniProt Q9NY46); test: FLIPR membrane potential assay, hNav1.3; type: cell-based
T4 construct: host or cells: HEK293
Method in brief: as §2

hNav1.5 = target: T5, hNav1.5 (Homo sapiens, UniProt Q14524); test: FLIPR membrane potential assay, hNav1.5; type: cell-based
T5 construct: host or cells: HEK293
Method in brief: as §2

hNav1.6 = target: T6, hNav1.6 (Homo sapiens, UniProt Q9UQD0); test: FLIPR membrane potential assay, hNav1.6; type: cell-based
T6 construct: host or cells: HEK293
Method in brief: as §2

hNav1.4 = target: T7, hNav1.4 (Homo sapiens, UniProt P35499); test: FLIPR membrane potential assay, hNav1.4; type: cell-based
T7 construct: host or cells: HEK293
Method in brief: as §2

hNav1.7 [5] = target: T3, hNav1.7; test: Automated patch clamping (QPatch-16), hNav1.7; type: cell-based; settings: 100 nM
Experimental: HEK293 cells stably expressing hNav1.1-1.7 or CHO cells stably expressing hNav1.8 (as described in Example 3 above) were cultured in a T-175 flask in selection antibiotic-free media at 37° C. Cells were grown to 70-80% confluence and harvested using Detachin (Bio-Scientific, NSW, Australia) at 37° C. for 2 min. Dissociated cells were then resuspended in Ex-Cell ACF CHO Medium with HEPES (25 mM; Sigma-Aldrich Co.) and allowed to recover on the QStirrer for 30 min.
The extracellular solution contained in mM: NaCl 145, KCl 4, CaCl2 2, MgCl2 1, HEPES 10 and glucose 10. The pH was adjusted to 7.4 with NaOH and osmolarity was adjusted with sucrose to 305 mOsm. The intracellular solution contained in mM: CsF 140, ethylene glycol tetraacetic acid (EGTA)/CsOH 1/5, HEPES 10 and NaCl 10. The pH was adjusted to 7.3 with CsOH and osmolarity adjusted with sucrose to 320 mOsm.
Whole-cell patch-clamp experiments were performed on a QPatch-16 automated electrophysiology platform (Sophion Bioscience, Ballerup, Denmark) using 16-channel planar patch chip plates (QPlates; Sophion Bioscience) with a patch hole diameter of 1 μm and resistance of 2±0.02 MΩ with the following parameters: positioning pressure −60 mbar, minimum seal resistance 0.1 GΩ, holding potential −100 mV, holding pressure −20 mbar.
Whole-cell currents were filtered at 5 kHz and acquired at 25 kHz.
The current-voltage (IV) curve was constructed with a holding potential of −80 mV followed by a pre-pulse of −100 mV for 50 ms and a series of 50 ms step pulses that ranged from −80 to 50 mV in 5 mV increments before returning to a holding potential of −80 mV. Voltage-dependence of activation was determined as normalized Nav conductance (GNa) using: GNa=INa/(Vmemb−Vrev), where Vmemb is the membrane potential and Vrev is the reversal potential for each cell. The voltage of activation data was fitted to a Boltzmann sigmoidal curve using GraphPad Prism, version 6.0.

hNav1.1 = target: T8, hNav1.1 (Homo sapiens, UniProt P35498); test: FLIPR membrane potential assay, hNav1.1; type: cell-based
T8 construct: host or cells: HEK293
Method in brief: as §2

T3 sequence (Q15858 whole entry): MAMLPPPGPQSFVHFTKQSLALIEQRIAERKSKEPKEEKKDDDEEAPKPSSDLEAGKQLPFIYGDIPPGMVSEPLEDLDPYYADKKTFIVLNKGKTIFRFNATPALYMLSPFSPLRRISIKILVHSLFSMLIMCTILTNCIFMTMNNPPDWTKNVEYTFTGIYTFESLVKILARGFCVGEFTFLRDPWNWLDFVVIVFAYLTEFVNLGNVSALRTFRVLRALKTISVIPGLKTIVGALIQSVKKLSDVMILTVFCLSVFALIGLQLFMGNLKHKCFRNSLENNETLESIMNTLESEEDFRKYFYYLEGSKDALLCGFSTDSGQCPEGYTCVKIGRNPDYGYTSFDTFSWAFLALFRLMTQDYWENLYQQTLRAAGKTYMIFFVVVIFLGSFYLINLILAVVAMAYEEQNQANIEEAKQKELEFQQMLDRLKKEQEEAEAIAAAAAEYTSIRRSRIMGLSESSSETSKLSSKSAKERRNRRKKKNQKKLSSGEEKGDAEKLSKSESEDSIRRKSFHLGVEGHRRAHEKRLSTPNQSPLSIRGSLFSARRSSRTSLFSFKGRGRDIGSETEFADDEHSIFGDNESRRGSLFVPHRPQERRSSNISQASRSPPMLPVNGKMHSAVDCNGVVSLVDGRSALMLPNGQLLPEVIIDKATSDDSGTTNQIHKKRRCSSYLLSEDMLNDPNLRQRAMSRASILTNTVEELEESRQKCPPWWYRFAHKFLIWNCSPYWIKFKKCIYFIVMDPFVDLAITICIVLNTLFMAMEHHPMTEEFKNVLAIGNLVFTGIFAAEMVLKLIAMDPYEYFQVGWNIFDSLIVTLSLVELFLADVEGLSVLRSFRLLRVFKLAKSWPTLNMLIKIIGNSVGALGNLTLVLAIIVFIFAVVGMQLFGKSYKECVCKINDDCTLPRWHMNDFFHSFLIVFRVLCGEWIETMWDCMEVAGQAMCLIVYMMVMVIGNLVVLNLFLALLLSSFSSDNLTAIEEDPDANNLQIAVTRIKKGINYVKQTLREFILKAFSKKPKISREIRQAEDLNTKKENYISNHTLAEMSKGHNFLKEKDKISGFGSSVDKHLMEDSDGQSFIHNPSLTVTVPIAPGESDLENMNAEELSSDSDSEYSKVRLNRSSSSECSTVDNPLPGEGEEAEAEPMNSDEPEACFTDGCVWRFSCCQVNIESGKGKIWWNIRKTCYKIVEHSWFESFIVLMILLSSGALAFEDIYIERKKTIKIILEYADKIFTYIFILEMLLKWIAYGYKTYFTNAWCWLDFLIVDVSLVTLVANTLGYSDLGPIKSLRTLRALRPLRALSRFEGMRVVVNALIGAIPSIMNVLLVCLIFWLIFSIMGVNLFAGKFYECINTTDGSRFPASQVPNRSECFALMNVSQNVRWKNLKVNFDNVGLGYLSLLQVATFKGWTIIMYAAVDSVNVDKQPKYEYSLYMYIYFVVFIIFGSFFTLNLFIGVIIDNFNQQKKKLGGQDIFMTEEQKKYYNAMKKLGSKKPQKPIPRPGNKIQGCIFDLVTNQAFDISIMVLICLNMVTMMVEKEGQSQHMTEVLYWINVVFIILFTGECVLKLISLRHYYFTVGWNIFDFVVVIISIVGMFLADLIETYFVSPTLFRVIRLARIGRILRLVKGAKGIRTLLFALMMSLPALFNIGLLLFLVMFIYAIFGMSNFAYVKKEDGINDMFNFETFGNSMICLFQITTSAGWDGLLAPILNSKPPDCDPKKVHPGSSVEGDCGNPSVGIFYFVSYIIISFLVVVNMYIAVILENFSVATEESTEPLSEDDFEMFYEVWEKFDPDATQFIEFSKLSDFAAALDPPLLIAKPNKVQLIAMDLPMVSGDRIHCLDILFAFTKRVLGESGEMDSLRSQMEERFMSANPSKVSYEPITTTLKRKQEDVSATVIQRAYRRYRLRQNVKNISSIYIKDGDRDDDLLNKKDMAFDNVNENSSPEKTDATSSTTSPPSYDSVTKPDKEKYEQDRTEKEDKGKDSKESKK
T6 sequence (Q9UQD0 whole entry): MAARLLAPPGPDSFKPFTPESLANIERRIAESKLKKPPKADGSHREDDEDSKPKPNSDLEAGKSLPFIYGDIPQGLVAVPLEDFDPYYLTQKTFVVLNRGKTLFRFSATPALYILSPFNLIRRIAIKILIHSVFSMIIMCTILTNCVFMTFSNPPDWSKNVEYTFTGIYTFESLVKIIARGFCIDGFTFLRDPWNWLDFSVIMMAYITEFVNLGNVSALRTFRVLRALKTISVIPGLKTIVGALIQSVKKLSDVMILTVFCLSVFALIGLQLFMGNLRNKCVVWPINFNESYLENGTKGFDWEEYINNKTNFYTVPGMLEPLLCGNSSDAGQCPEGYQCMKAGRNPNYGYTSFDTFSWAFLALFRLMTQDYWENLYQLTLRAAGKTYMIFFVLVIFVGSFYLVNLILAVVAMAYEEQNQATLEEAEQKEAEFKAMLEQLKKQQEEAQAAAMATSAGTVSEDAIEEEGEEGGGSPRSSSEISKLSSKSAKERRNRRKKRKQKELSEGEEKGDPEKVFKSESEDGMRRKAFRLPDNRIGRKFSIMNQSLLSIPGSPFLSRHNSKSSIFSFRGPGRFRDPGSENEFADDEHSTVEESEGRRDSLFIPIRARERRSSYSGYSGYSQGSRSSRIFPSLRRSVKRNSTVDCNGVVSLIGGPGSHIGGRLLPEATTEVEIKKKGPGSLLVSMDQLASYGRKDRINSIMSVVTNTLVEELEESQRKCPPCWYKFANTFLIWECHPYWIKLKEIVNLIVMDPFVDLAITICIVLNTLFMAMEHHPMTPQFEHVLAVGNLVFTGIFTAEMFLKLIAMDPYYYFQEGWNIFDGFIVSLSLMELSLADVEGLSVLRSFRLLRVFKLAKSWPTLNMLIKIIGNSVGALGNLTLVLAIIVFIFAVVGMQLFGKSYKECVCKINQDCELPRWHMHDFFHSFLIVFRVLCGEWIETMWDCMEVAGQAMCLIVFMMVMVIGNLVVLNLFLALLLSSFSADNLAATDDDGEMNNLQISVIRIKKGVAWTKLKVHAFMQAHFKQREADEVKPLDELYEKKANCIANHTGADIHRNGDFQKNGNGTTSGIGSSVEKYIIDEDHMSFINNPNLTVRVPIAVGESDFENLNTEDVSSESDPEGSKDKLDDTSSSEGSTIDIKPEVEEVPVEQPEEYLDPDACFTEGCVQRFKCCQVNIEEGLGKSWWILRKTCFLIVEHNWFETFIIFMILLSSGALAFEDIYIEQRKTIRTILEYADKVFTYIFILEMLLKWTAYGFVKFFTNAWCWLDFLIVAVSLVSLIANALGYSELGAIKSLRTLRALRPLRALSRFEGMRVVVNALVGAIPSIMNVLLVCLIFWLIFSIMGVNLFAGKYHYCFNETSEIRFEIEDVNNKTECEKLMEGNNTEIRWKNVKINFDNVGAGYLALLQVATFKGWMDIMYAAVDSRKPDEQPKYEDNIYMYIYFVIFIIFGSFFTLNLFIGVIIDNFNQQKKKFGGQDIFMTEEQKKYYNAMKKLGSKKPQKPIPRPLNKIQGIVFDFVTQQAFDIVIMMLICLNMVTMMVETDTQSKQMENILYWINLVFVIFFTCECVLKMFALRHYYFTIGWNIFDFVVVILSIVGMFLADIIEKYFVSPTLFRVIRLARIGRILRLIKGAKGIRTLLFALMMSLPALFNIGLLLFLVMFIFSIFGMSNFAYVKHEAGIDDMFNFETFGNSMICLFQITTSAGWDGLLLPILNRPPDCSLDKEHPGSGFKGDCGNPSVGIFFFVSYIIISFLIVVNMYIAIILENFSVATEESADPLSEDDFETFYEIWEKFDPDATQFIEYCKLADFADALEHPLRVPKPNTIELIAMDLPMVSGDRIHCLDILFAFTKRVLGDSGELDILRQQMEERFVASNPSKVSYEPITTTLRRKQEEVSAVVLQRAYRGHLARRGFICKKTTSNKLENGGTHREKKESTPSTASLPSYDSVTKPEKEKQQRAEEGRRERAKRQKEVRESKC

NCC1(CC(=O)O)CCCCC1 [gabapentin]
ataxia index (foot slips per metre travelled) compared to vehicle control [1]: significant increase

C=CC[N+]1(C)CC[C@]23c4c5ccc(O)c4O[C@H]2C(=O)CC[C@@]3(O)[C@H]1C5 (stereo partly shown) [naloxone methiodide]
analgesic effects of the Pnc1a/oxycodone combination on mechanical allodynia [2]: reversed | analgesic effects of the Pnc1a/oxycodone combination on thermal allodynia [2]: reversed

NC(=O)[C@@H]1CC[C@H](c2ccc(OCc3ccccc3F)cc2)N1 [CNV1014802, raxatrigine]
ataxia index (foot slips per metre travelled) compared to vehicle control [1]: no significant effect

ProTxII: Nav1.7 selective inhibitor (Peptides International) [reference compound]
OD1-induced pain behaviours, compared to an equivalent concentration of Pnc1a [3]: only partially reversed

CSCC[C@@H]1NC(=O)[C@H](Cc2ccc(O)cc2)NC(=O)[C@H](CCCNC(=N)N)NC(=O)[C@@H](NC(=O)[C@@H](N)CC(=O)O)CSSC[C@@H]2NC(=O)[C@@H]3CSSC[C@@H](C(=O)N[C@@H](C)C(=O)N[C@@H](Cc4c[nH]c5ccccc45)C(=O)N[C@@H](CC(=O)O)C(=O)N[C@@H](Cc4ccccc4)C(=O)N[C@H](C(=O)N[C@@H](Cc4ccccc4)C(=O)N[C@H](C(=O)O)[C@@H](C)O)[C@@H](C)O)NC(=O)[C@H](Cc4ccc(O)cc4)NC(=O)[C@H](CCCCN)NC(=O)[C@H](CCSC)NC(=O)[C@H](CC(=O)O)NC(=O)[C@H](CCCNC(=N)N)NC(=O)[C@H](CCCCN)NC(=O)[C@H](CSSC[C@H](NC(=O)[C@H](CC(=O)O)NC(=O)CNC(=O)[C@H](Cc4ccccc4)NC1=O)C(=O)N[C@@H](CCC(=O)O)C(=O)N[C@@H](CCCCN)C(=O)N[C@@H](CC(=O)O)C(=O)N[C@@H](CCC(=O)O)C(=O)N[C@@H](CC(=O)O)C(=O)N3)NC(=O)CNC(=O)[C@H](CC(C)C)NC(=O)[C@H](Cc1c[nH]cn1)NC(=O)[C@H](CCCCN)NC2=O [[K24D]Pnc1a] (H-DCRYMFGDCEKDEDCCKHLGCKRDMKYCAWDFTFT-OH; disulfide 2-16, 9-21, 15-28)
pIC50 (hNav1.2): 4.42 | Selectivity for Nav1.7, Nav subtype 1.2 (hNav1.2; membrane potential assay): 7 | pIC50 (hNav1.8): < 4.52 | Selectivity for Nav1.7, Nav subtype 1.8 (hNav1.8; membrane potential assay): 40 | pIC50 (hNav1.7 [4]): 6.29 | Selectivity for Nav1.7, Nav subtype 1.7 (hNav1.7 [4]; membrane potential assay, reference subtype): 1 | pIC50 (hNav1.3): 4.70 | Selectivity for Nav1.7, Nav subtype 1.3 (hNav1.3; membrane potential assay): 39 | pIC50 (hNav1.5): < 4.52 | Selectivity for Nav1.7, Nav subtype 1.5 (hNav1.5; membrane potential assay): 59 | pIC50 (hNav1.6): < 4.52 | Selectivity for Nav1.7, Nav subtype 1.6 (hNav1.6; membrane potential assay): 14 | pIC50 (hNav1.4): 4.92 | Selectivity for Nav1.7, Nav subtype 1.4 (hNav1.4; membrane potential assay): 24 | effect on the current voltage (IV) relationship of Nav1.7 (hNav1.7 [5]): minimal effect | pIC50 (hNav1.1): 4.49 | Selectivity for Nav1.7, Nav subtype 1.1 (hNav1.1; membrane potential assay): 63
